Assay results as given in US5985916A, “Polymer-platinum compounds” (Access Pharmaceuticals, Inc., priority 1998, dated 1999).

Tests used:
[1] = background; cited from earlier work
COR-L23 cells = test: In vitro cytotoxicity (MTT assay), COR-L23; assay type: cell-based; conditions: 50% decrease in cell viability
Procedure: (§1) The in vitro cytotoxicity of the polyamidoamine-platinum compounds was evaluated using the MTT assay described above and in Example 5.
(§2) The cell lines used, L132 (human embryonic lung cells), COR L23 (non-small cell lung cancer cells) and H69 (small cell lung cancer), were obtained from European Collection of Cell Cultures, Centre for Applied Biology, Microbiology and Research, Salisbury, Wiltshire UK.
(§3) Cells were cultured using standard conditions in microtitre plates.

L132 cells = test: In vitro cytotoxicity (MTT assay), L132; assay type: cell-based, human; conditions: 50% decrease in cell viability
Procedure: as §1, §2, §3

H69 cells = test: In vitro cytotoxicity (MTT assay), H69 small cell lung carcinoma; assay type: cell-based; conditions: 50% decrease in cell viability
Procedure: as §1, §2, §3

[2] = test system: L1210 intraperitoneal tumor; test: L1210 i.p. tumor model in mice (survival and toxic deaths); assay type: in vivo, mice (DBA2)
Procedure: The data in Table 3 is expressed as the ratio of the mean survival time of treated animals to the mean survival time of the untreated control animals×100 (T/C).
10^6 viable cells were administered to DBA2 mice (male 9-12 weeks, 20-30 g) i.p. on day 0. […] Animals were weighed daily and observed twice a day for signs of tumor progression and sacrificed if their body weight fell below 80% of the starting weight or if other severe toxicological problems were seen. At the end of the experiment changes in gross anatomy were noted.

[3] = test system: B16 melanoma intraperitoneal tumor; test: B16 melanoma i.p. tumor model in mice (survival, toxic deaths, body weight); assay type: in vivo, mice (C57BL/6J); conditions: single i.p. dose
Excerpt: Male C57BL/6J mice were inoculated with 10^6 viable B16F10 cells intraperitoneally (i.p). […] Animals were monitored as described above.

## N.N.[Cl][Pt][Cl] [Cisplatin, Cis-diamminedichloroplatinum(II)]
[1]
  excretion, in words: rapid excretion via the kidneys
COR-L23 cells
  IC50, COR-L23: 7.38 ± 2.78 µg/mL
L132 cells
  IC50, L132: 4.80 ± 1.29 µg/mL
H69 cells
  IC50, H-69: 45.9 ± 20 µg/mL
[2]; 2 mg/kg Pt
  T/C (mean survival time treated/control × 100): 171
[2]; 3 mg/kg Pt
  T/C (mean survival time treated/control × 100): 64
[3]; 5 mg/kg Pt
  T/C: 134
[3]; 10 mg/kg Pt
  T/C: 78
